Experimental data published in patent US20060160887A1, “Medicinal composition” (Kyowa Hakko Kogyo Co., Ltd., priority 2003, published 2006).

Legend:
[1] = tested on: A-type potassium channels; conditions: known from WO02/078523 and WO02/078710; cited from earlier work
[2] = tested on: premicturition contractions in rats with spinal cord injury; assay: Inhibitory activity on detrusor overactivity (cystometry, premicturition contractions) in rats with spinal cord injury; format: in vivo, rat; conditions: p.o.; for amplitude of premicturition contractions (relative value, before administration = 100) / frequency of premicturition contractions (relative value, before administration = 100): female SD rats with spinal cord injury, mean ± SE, n = 9; for effect on premicturition contractions (amplitude and frequency of premicturition contractions), in words: rats with spinal cord injury, summary of Tables 1 and 2
From the text: Spinal cord was injured in the rats.

[3] = Compound (Ia) 0.01 mg/kg, after 1 hour
[4] = Compound (Ia) 0.01 mg/kg, after 3 hours
[5] = Compound (Ia) 0.01 mg/kg, after 5 hours
[6] = Tolterodine 3 mg/kg, after 1 hour
[7] = Tolterodine 3 mg/kg, after 3 hours
[8] = Tolterodine 3 mg/kg, after 5 hours

SMILES	effect on A-type potassium channels, in words [1]	amplitude of premicturition contractions (relative value, before administration = 100) [2, 3]	frequency of premicturition contractions (relative value, before administration = 100) [2, 3]	amplitude of premicturition contractions (relative value, before administration = 100) [2, 4]	frequency of premicturition contractions (relative value, before administration = 100) [2, 4]	amplitude of premicturition contractions (relative value, before administration = 100) [2, 5]	frequency of premicturition contractions (relative value, before administration = 100) [2, 5]	effect on premicturition contractions (amplitude and frequency of premicturition contractions), in words [2]	amplitude of premicturition contractions (relative value, before administration = 100) [2, 6]	frequency of premicturition contractions (relative value, before administration = 100) [2, 6]	amplitude of premicturition contractions (relative value, before administration = 100) [2, 7]	frequency of premicturition contractions (relative value, before administration = 100) [2, 7]	amplitude of premicturition contractions (relative value, before administration = 100) [2, 8]	frequency of premicturition contractions (relative value, before administration = 100) [2, 8]
CC(O)(C(=O)Nc1cccc2c1C(=O)c1sccc1CS2(=O)=O)C(F)(F)F (stereo not drawn) [Compound (I), 3,3,3-trifluoro-2-hydroxy-2-methyl-N-(5,5,10-trioxo-4,10-dihydrothieno[3,2-c][1]benzothiepin-9-yl)propanamide]	opening effect of A-type potassium channels	–	–	–	–	–	–	–	–	–	–	–	–	–
C[C@](O)(C(=O)Nc1cccc2c1C(=O)c1sccc1CS2(=O)=O)C(F)(F)F [Compound (Ia), (S)-(+)-3,3,3-trifluoro-2-hydroxy-2-methyl-N-(5,5,10-trioxo-4,10-dihydrothieno[3,2-c][1]benzothiepin-9-yl) propanamide]	–	71.9 ± 7.3 %	61.6 ± 9.8 %	62.6 ± 7.3 %	53.2 ± 4.9 %	65.1 ± 7.2%	56.0 ± 8.3 %	inhibited premicturition contractions	–	–	–	–	–	–
Cc1ccc(O)c([C@H](CCN(C(C)C)C(C)C)c2ccccc2)c1 [Tolterodine, tolterodine, reference compound]	–	–	–	–	–	–	–	inhibited premicturition contractions	105.9 ± 24.3%	70.4 ± 11.6%	79.6 ± 9.7%	73.4 ± 8.2%	70.3 ± 11.9 %	75.5 ± 12.0%
